Source: ChEMBL document CHEMBL1143752, “Fatty acyl amides of endogenous tetrahydroisoquinolines are active at the recombinant human TRPV1 receptor” (Bioorg Med Chem, 2007)

Key:
Format in all cases: functional, cell-based
[1] = biological target: Transient receptor potential cation channel subfamily V member 1 (Homo sapiens) (UniProt Q8NER1); test: Agonist activity at human TRPV1 expressed HEK293 cells assessed as calcium mobilization at 10 uM
[2] = biological target: Transient receptor potential cation channel subfamily V member 1 (Homo sapiens) (UniProt Q8NER1); test: Agonist activity at human TRPV1 expressed HEK293 cells assessed as reduction of capsaicin-induced calcium mobilization at 1 uM; parameters: scale not given: the % may be the effect or the level left
[3] = biological target: Transient receptor potential cation channel subfamily V member 1 (Homo sapiens) (UniProt Q8NER1); test: Agonist activity at human TRPV1 expressed HEK293 cells assessed as calcium mobilization at 12 uM

Chain of Transient receptor potential cation channel subfamily V member 1 (Homo sapiens) (Q8NER1 whole entry): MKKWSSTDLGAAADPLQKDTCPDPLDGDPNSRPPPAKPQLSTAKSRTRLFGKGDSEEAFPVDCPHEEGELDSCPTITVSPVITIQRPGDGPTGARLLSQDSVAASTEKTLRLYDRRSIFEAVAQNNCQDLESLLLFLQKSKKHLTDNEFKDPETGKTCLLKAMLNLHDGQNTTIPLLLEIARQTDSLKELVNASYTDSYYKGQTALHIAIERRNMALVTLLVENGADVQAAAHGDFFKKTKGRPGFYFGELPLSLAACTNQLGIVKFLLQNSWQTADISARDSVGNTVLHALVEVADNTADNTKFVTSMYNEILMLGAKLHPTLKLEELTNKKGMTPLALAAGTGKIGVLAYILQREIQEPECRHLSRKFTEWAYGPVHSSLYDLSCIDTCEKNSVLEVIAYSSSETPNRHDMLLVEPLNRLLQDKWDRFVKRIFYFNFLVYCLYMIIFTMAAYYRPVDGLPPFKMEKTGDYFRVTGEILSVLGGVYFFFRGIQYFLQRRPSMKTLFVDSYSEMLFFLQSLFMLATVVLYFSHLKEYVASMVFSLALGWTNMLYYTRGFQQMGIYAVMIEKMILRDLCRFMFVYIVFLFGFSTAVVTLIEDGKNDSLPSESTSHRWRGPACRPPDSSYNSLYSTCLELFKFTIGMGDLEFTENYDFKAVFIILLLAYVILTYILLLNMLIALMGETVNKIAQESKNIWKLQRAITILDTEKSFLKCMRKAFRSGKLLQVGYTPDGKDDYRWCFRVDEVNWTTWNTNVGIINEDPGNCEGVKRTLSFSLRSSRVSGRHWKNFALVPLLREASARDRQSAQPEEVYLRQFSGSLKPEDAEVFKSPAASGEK

| Activity [1] [%] | Activity [2] [%] | Activity [3] [%] | Structure (SMILES) |
| --- | --- | --- | --- |
| 11 | 25 | – | CCCCC/C=C/C/C=C/CCCCCCCC(=O)N1CCc2cc(OC)c(O)cc2C1C (configuration not stated) |
| 36 | 35 | – | CCCCC/C=C/C/C=C/CCCCCCCC(=O)N1CCc2cc(O)c(O)cc2C1C (configuration not stated) |
| 25 | 45 | – | CC/C=C/C/C=C/C/C=C/C/C=C/C/C=C/C/C=C/CCC(=O)N1CCc2cc(O)c(O)cc2C1C (configuration not stated) |
| – | 5 | 14 | CC/C=C/C/C=C/C/C=C/C/C=C/C/C=C/C/C=C/CCC(=O)N1CCc2cc(OC)c(O)cc2C1C (configuration not stated) |

| Structure (SMILES) | Activity [1] [%] | Activity [2] [%] | Activity [3] [%] |
| --- | --- | --- | --- |
| CCCCC/C=C/C/C=C/C/C=C/C/C=C/CCCC(=O)N1CCc2cc(OC)c(O)cc2C1C (configuration not stated) | 18 | 35 | – |
| CCCCC/C=C/C/C=C/C/C=C/C/C=C/CCCC(=O)N1CCc2cc(O)c(O)cc2C1C (configuration not stated) | 55 | 40 | – |
